“Also recorded” adds a separate entry of the source.
Assays:
[1] = tested on: human neutrophils; assay: In vitro TRAP formation by human blood neutrophils (PMNs) cultured with test agents; type: cell-based; conditions: for TRAP formation in human neutrophils: FIG. 12, human blood neutrophils cultured with agent; for TRAP formation at higher dilution than 1/5: PMNs; for TRAP formation at 1/5 dilution: PMNs of 3 donors, 4 hr timeline, vs negative control
Protocol: From left to right and top to bottom (A)-(F), media only (A) and PMA (B), a known inducer of TRAPS in human neutrophils, present positive control.
PMA=phorbol myristate acetate; Insulin is Humalog (Lilly); LPS is a bacterial endotoxin (known inducers of TRAPs.
Green color (light color in grayscale) indicates the existence of TRAPs. In each slide set, the upper left slide is the control with media only. The upper right slide is Humalog insulin in media at 1/5 dilution (0.6 mg m-cresol/ml, with 0.6 mg/ml of insulin), PMA concentrations are in ng/ml and the lower right slide is m-cresol at 1/5 dilution (0.6 mg/ml of m-cresol). In this study, the media was RPMI 1640 (phenol free).
In these examples, human blood neutrophils were placed in a culture dish+/−sensors in vitro. […] Brightfield refers to the use of non-fluorescent white light (78a). […] In FIG. 79, neutrophils were added to tissue culture dishes that contained a sensor (commercial type #1) to see if the sensor could directly trigger neutrophil death and TRAP release which we detect with fluorescent dyes like sytox green. FIG. 79a-c had no neutrophils added to the sensors. In FIG. 79d-f neutrophils were added. The sytox green binds to DNA, and fluoresces green in color photo, or white in black and white photos. […] “Merged” refers to photos in which the non-fluorescent (brightfield) and fluorescent photos are merged into a single photo FIG. 79c.

[2] = tested on: porcine skin; assay: In vivo TRAP formation at infusion/injection sites in swine skin (H&E histology); conditions: infused continuously over a 5- to 7-day period
Text: The presence of the purple web appearance is indicated by the black arrows.
White area in the center of the image is the previous location of the injection port.

## CNc1ccc2oc(C[C@H]3O[C@@]4(CC[C@H]3C)O[C@H]([C@H](C)C(=O)c3ccc[nH]3)[C@H](C)C[C@H]4C)nc2c1C(=O)O [A23187, calcimycin]
[1]; FIG. 77 d-f, human neutrophils in culture dish
  TRAPs in neutrophils, positive control: triggers TRAPs

## CCCCCCCCCCCCCC(=O)O[C@@H]1[C@@H](C)[C@@]2(O)[C@@H](C=C(CO)C[C@]3(O)C(=O)C(C)=C[C@@H]23)[C@@H]2C(C)(C)[C@]12OC(C)=O [PMA, phorbol myristate acetate]
[1]; FIG. 60B, human PMNs, RPMI 1640
  TRAPs at 30 minutes: presence of TRAPs
[1]; FIG. 60C, Humalog insulin 1/5 dilution
  TRAPs at 60 minutes: significant TRAPs
[1]; dilution not specified, positive controls and insulin fibrils lacking PP
  TRAP formation in PMNs of 3 donors: trigger TRAP formation; also recorded: triggered TRAPs
[1]; human PMNs, commercial insulin and m-cresol at 1/5 dilution
  time after exposure until TRAPs are triggered: ≤ 60 min

## Cc1cccc(O)c1 [m-cresol]
[2]
  TRAPS in swine tissue: presence of TRAPS
[1]
  TRAP formation in human neutrophils: trigger TRAP formation
  TRAP formation at higher dilution than 1/5: weak to no TRAP formation
  TRAP formation at 1/5 dilution: strong
[1]; FIGS. 60E-60F, 1/5 dilution (0.6 mg/ml m-cresol)
  TRAPs from 120 minutes to 150 minutes: significant increase in the presence of TRAPs
[1]; FIGS. 60G-60I, 1/5 dilution
  number and size of TRAPs from 180 minutes to 240 minutes: remained relatively stable

## Oc1ccccc1 [phenol]
[1]
  TRAP formation in human neutrophils: trigger TRAP formation
  TRAP formation at higher dilution than 1/5: weak to no TRAP formation
  TRAP formation at 1/5 dilution: triggered TRAP formation
[1]; listed as Phenol
  TRAP formation at 1/5 dilution: strong traps
